# Reference: patent publication US8772348B2, “Materials and methods for pest control” (priority 2009, dated 2014)
# Like-named read-outs stand apart in the source and are kept apart here.
# How the values were obtained:
# Aedes aegypti [1] = conditions: filter paper discs, after a 24-hour exposure
# Experimental: Briefly, yellow fever mosquito, Ae. aegypti were obtained from strains that have been cultured in the laboratory of the Entomology and Nematology Department, University of Florida.
# The mortality rate is measured after a 2-hour, 4-hour and 24-hour exposure period. Ataxic mosquitoes are considered dead.
# The ability of Ae. aegypti to recover from insecticidal exposure is also investigated. After a 2-hour exposure, each set of Ae. aegypti is transferred into a separate jar. The mortality rate is measured at two time intervals: first, immediately at the transfer (2 hours after the initial exposure), and second, 22 hours after the transfer (24 hours after the initial exposure).
# Aedes aegypti [2] = conditions: formulation on plywood panels at 1.67 mg cm^−2, 2 h exposure, mortality 24 h after initial exposure
# Experimental: Briefly, after mosquitoes are assayed on unpainted plywood panel boards with formulation at a concentration of 1.67 mg cm^−2 for 2 hours, they are transferred into a separate glass jar, and held for another 24 hours. The mortality rate is measured daily for a continuous 4 days (Day 1 starts at 24 hours after the transfer), as is determined using the same procedures as are illustrated in Example 2.
# (§1) Plywood panels (225 cm^2) were treated with chemicals at a rate of 1.67 mg cm^−2. Panels were treated on day 0 and was held until exposure on post-treatment day. Mosquitoes were exposed to chemicals for 2 h, and mortality rate was assessed 24 h after initial exposure. Control contained formulation ingredients without semiochemicals.
# Musca domestica [3] = conditions: formulation on plywood panels, 3.33 mg cm^−2 (footnote 1.67), 2 h exposure, mortality 24 h after
# Experimental: Briefly, after Musca domestica is exposed to formulations at concentration of 3.33 mg cm^−2 for 2 hours, each set is transferred into a separate glass jar, and held for another 24 hours.
# as §1
# Musca domestica [4] = conditions: M. domestica; formulation on plywood panels at 1.67 mg cm^−2; mortality 24 h after
# Experimental: Briefly, each fly strain is divided into eight sets: three sets as the experiment, four sets as the positive control, and one set as the negative control. Flies are assayed on unpainted plywood panel boards that have been previously exposed to natural summer weather conditions for at least 10 days. […] The positive control set is treated with permethrin, geranyl acetone, rosalva or citronellol. The negative control set is treated with water. The formulation is applied at a uniform rate of 7.5 ml per 225 cm^2, sufficient to cover the entire panel without dripping. Subsequently, the treated panel boards are dried for about an hour.
# In each set, 20 adult flies are placed onto the panel boards. Flies are secured with wooden embroidery hoops, covered with a coarse mesh screen cloth previously sprayed with the respective formulation. After 4 hours, flies are transferred into a clean jar. The mortality rate is measured 24 hours after the transfer, and is determined using the same procedures as are illustrated in Example 2.
# as §1, with “mgcm^−2.” for “mg cm^−2.”, “and” for “and was”
smiles,measurement,setting,value
"CC1(C)CCCC2=C1CC(C=O)CC2 (stereo not drawn) [Cyclemone A, 2-naphthaldehyde, 1,2,3,4,5,6,7,8-octahydro-8,8-dimethyl]",mortality rate,Aedes aegypti [1],~100%
same,% mortality on various days following treatment,Aedes aegypti [2]; day 1,100.00a %
same,% mortality on various days following treatment,Aedes aegypti [2]; day 2,72.00b %
same,% mortality on various days following treatment,Aedes aegypti [2]; day 3,28.0b %
same,% mortality on various days following treatment,Aedes aegypti [2]; day 4,13.0b %
same,% mortality on various days following treatment,Musca domestica [3]; day 1,100.00a %
same,% mortality on various days following treatment,Musca domestica [3]; day 2,49.25b %
same,% mortality on various days following treatment,Musca domestica [3]; day 3,48.25b %
same,% mortality on various days following treatment,Musca domestica [3]; day 5,27.75c %
same,% mortality on various days following treatment,Musca domestica [3]; day 7,18.75b %
same,% mortality on various days following treatment,Musca domestica [3]; day 14,9.00b %
same,% mortality,Musca domestica [4],48.20b %
